# Experimental data reported in paper PMC5053523, “In Vitro Antibacterial Activity of Rhodanine Derivatives against Pathogenic Clinical Isolates” (PLoS ONE, 2016).
# Where two headings read alike, the source gives them in different places.
# Tests used:
# Format in all cases: cell-based
# [1] = test system: Vancomycin Resistant Staphylococcus aureus (VRSA); test: Broth microdilution MIC/MBC, VRSA; settings: for MBC / MIC: VRSA
# B. licheniformis = test: Broth microdilution MIC/MBC, B. licheniformis; settings: Bacillus licheniformis; for MBC: read-out: MBC; for MIC: read-out: MIC
# [2] = test system: vancomycin resistant enterococci (VRE); test: Broth microdilution MIC50/MIC90, VRE panel; settings: Enterococcus, 10 VRE strains
# [3] = test system: methicillin-resistant Staphylococcus aureus (MRSA); test: Broth microdilution MIC/MBC, MRSA
# Bacillus anthracis = test: microbe, parasite or virus in culture
# Klebsiella pneumoniae = test: MIC with/without PMBN, Klebsiella pneumoniae
# In short: (§1)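 Read-out is the MIC, determined with sub-inhibitory colistin or polymixin B nonapeptide co-applied to permeabilize the outer membrane of Gram-negative bacteria.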
# Clostridium difficile = test: MIC against Clostridium difficile, anaerobic broth dilution; settings: Clostridioides difficile
# In short: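 Clinical C. difficile isolates grown anaerobically 48 h at 37 °C, suspended to 0.5 McFarland and diluted 1:300 in pre-reduced supplemented Brain Heart Infusion broth. Compounds serially diluted; plates incubated anaerobically at 37 °C for 48 h. MIC = lowest concentration with no visible growth.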
# Acinetobacter baumannii = test: MIC with/without sub-MIC colistin, Acinetobacter baumannii
# In short: as §1
# Mycobacterium smegmatis = test: Broth microdilution MIC/MBC, Mycobacterium smegmatis; settings: Mycolicibacterium smegmatis, ATCC14468, M. Smegmatis ATCC 14468
# Candida albicans = test: MIC against Candida albicans; settings: table prints none, read-out: MIC
# [4] = NCIB9375, B. licheniformis Gibson 46 (NCIB 9375) NR-2494
# [5] = NRS712, B. licheniformis NRS 712 NR-2499
smiles,measurement,setting,value
O=C(O)[C@H](Cc1ccccc1)N1C(=O)/C(=C/c2cccc(OC/C=C/c3ccc(Cl)c(Cl)c3)c2)SC1=S [Rh 6],MIC50,"[1]; 15 VRSA strains, read-out: MIC 50",4 µM
same,MIC90,"[1]; 15 VRSA strains, read-out: MIC 90",8 µM
same,MBC,"[1]; VRSA 1, read-out: MBC",> 64 µM
same,MIC,"[1]; VRSA 1, read-out: MIC",8 µM
same,MBC,"[1]; VRSA 2, read-out: MBC",8 µM
same,MIC,"[1]; VRSA 2, read-out: MIC",8 µM
same,MBC,"[1]; VRSA 3a, read-out: MBC",8 µM
same,MIC,"[1]; VRSA 3a, read-out: MIC",8 µM
same,MBC,"[1]; VRSA 3b, read-out: MBC",16 µM
same,MIC,"[1]; VRSA 3b, read-out: MIC",8 µM
same,MBC,"[1]; VRSA 4, read-out: MBC",8 µM
same,MIC,"[1]; VRSA 4, read-out: MIC",4 µM
same,MBC,"[1]; VRSA 5, read-out: MBC",16 µM
same,MIC,"[1]; VRSA 5, read-out: MIC",4 µM
same,MBC,"[1]; VRSA 6, read-out: MBC",32 µM
same,MIC,"[1]; VRSA 6, read-out: MIC",4 µM
same,MBC,"[1]; VRSA 7, read-out: MBC",8 µM
same,MIC,"[1]; VRSA 7, read-out: MIC",8 µM
same,MBC,"[1]; VRSA 8, read-out: MBC",16 µM
same,MIC,"[1]; VRSA 8, read-out: MIC",4 µM
same,MBC,"[1]; VRSA 9, read-out: MBC",16 µM
same,MIC,"[1]; VRSA 9, read-out: MIC",8 µM
same,MBC,"[1]; VRSA 10, read-out: MBC",16 µM
same,MIC,"[1]; VRSA 10, read-out: MIC",4 µM
same,MBC,"[1]; VRSA 11a, read-out: MBC",64 µM
same,MIC,"[1]; VRSA 11a, read-out: MIC",4 µM
same,MBC,"[1]; VRSA 11b, read-out: MBC",32 µM
same,MIC,"[1]; VRSA 11b, read-out: MIC",4 µM
same,MBC,"[1]; VRSA 12, read-out: MBC",32 µM
same,MIC,"[1]; VRSA 12, read-out: MIC",4 µM
same,MBC,"[1]; VRSA 13, read-out: MBC",32 µM
same,MIC,"[1]; VRSA 13, read-out: MIC",8 µM
same,MBC,B. licheniformis; [4],4 µM
same,MIC,B. licheniformis; [4],4 µM
same,MBC,B. licheniformis; [5],4 µM
same,MIC,B. licheniformis; [5],4 µM
same,MIC90,"[2]; VRE, read-out: MIC 90",8 µM
same,MIC50,[2]; read-out: MIC 50,8 µM
same,MIC50,[3]; 11 MRSA strains,4 µM
same,MIC90,[3]; 11 MRSA strains,8 µM
same,MBC,[3]; MRSA NRS 1,8 µM
same,MIC,[3]; MRSA NRS 1,8 µM
same,MBC,[3]; MRSA NRS 19,8 µM
same,MIC,[3]; MRSA NRS 19,8 µM
same,MBC,[3]; MRSA NRS 37,16 µM
same,MIC,[3]; MRSA NRS 37,8 µM
same,MBC,[3]; MRSA NRS 107,8 µM
same,MIC,[3]; MRSA NRS 107,8 µM
same,MBC,[3]; MRSA NRS 119,4 µM
same,MIC,[3]; MRSA NRS 119,4 µM
same,MBC,[3]; MRSA NRS 382,16 µM
same,MIC,[3]; MRSA NRS 382,4 µM
same,MBC,[3]; MRSA NRS 383,8 µM
same,MIC,[3]; MRSA NRS 383,4 µM
same,MBC,[3]; MRSA NRS 384,4 µM
same,MIC,[3]; MRSA NRS 384,4 µM
same,MBC,[3]; MRSA NRS 385,4 µM
same,MIC,[3]; MRSA NRS 385,4 µM
same,MBC,[3]; MRSA NRS 386,32 µM
same,MIC,[3]; MRSA NRS 386,4 µM
same,MBC,[3]; MRSA NRS 387,8 µM
same,MIC,[3]; MRSA NRS 387,4 µM
same,MBC,Bacillus anthracis; Bacillus anthracis AMES35,2 µM
same,MIC,Bacillus anthracis; Bacillus anthracis AMES35,2 µM
same,MBC,Bacillus anthracis; Bacillus anthracis UM23,2 µM
same,MIC,Bacillus anthracis; Bacillus anthracis UM23,2 µM
same,MBC,Bacillus anthracis; Bacillus anthracis Weybridge,2 µM
same,MIC,Bacillus anthracis; Bacillus anthracis Weybridge,2 µM
same,MIC,"Klebsiella pneumoniae; Klebsiella pneumoniae ATCC BAA 1706, PMBN (+) 4 μg/mL",>64 µM
same,MIC,"Klebsiella pneumoniae; Klebsiella pneumoniae ATCC BAA 2146, PMBN (+) 4 μg/mL",>64 µM
same,MIC,"Klebsiella pneumoniae; Klebsiella pneumoniae, BAA1706",> 128 µM
same,MIC,"Klebsiella pneumoniae; Klebsiella pneumoniae, BAA2146",> 128 µM
same,MIC,Clostridium difficile; C. difficile HM-88,4 µM
same,MIC,Clostridium difficile; C. difficile HM-745,4 µM
same,MIC,Clostridium difficile; C. difficile HM-746,2 µM
same,MIC,Clostridium difficile; C. difficile Isolate-1 NR-13427,4 µM
same,MIC,Clostridium difficile; C. difficile Toxigenic Strain P8 NR-32888,8 µM
same,MIC,"Acinetobacter baumannii; Acinetobacter baumannii ATCC BAA747, colistin (+) […], read-out: MIC",>64 µM
same,MIC,"Acinetobacter baumannii; Acinetobacter baumannii ATCC BAA19606, colistin (+) […], read-out: MIC",>64 µM
same,MIC,"Acinetobacter baumannii; Acinetobacter baumannii, ATCCBAA747",> 128 µM
same,MIC,"Acinetobacter baumannii; Acinetobacter baumannii, ATCCBAA19606",> 128 µM
same,MBC,Mycobacterium smegmatis; read-out: MBC,32 µM
same,MIC,Mycobacterium smegmatis; read-out: MIC,16 µM
same,MIC,"Candida albicans; ATCC10231, C. albicans ATCC 10231, unit from abstract",> 64 µM
same,MIC,"Candida albicans; C. albicans NR 29434, unit from abstract",> 64 µM
same,MIC,"Candida albicans; C. albicans NR 29435, unit from abstract",> 64 µM
same,MIC,"Candida albicans; C. albicans NR29437, unit from abstract",> 64 µM
same,MIC,"Candida albicans; C. albicans NR29438, unit from abstract",> 64 µM
same,MIC,"Candida albicans; C. albicans NR 29446, unit from abstract",> 64 µM
same,MIC,"Candida albicans; C. albicans NR 29448, unit from abstract",> 64 µM
same,MIC,"Candida albicans; C. albicans NR 29449, unit from abstract",> 64 µM
same,MIC,"Candida albicans; C. albicans NR 29453, unit from abstract",> 64 µM
same,MIC,"Candida albicans; C. albicans NR 294436, unit from abstract",> 64 µM
